The structures appear in SMILES notation.

The target of assay [1] is T1, GST tagged LXRalpha LBD (ligand binding domain) (Homo sapiens, UniProt Q13133).
T1 construct: purchased Invitrogen pv4655
T1 sequence (Q13133 209-447 limits assumed): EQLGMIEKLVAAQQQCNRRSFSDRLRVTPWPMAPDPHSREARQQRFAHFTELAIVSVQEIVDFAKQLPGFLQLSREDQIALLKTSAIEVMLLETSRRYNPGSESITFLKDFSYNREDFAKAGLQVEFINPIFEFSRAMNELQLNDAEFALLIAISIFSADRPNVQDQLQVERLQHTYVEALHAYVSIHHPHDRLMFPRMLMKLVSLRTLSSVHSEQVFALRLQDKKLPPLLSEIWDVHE
As to the kind of experiment: LanthaScreen TR-FRET Liver X Receptor Coactivator Assay, LXR alpha-LBD. The class given is biochemical. Conditions: relative to reference T0901317; for EC50 / LXR alpha IP (nM): Inflection Point (potency), co-activator recruitment; for EC50: read-out: LXR alpha IP; for Emax: read-out: LXR alpha act @ max dose (%). As for the experimental part:
(§1) Potency (Inflection Point, IP) and efficacy (Emax) are evaluated via compound-induced co-activator recruitment to glutathione-S-transferase (GST) tagged LXRbeta and LXRalpha LBD (ligand binding domain) proteins in relation to reference dual agonist compound T0901317 (N-(2,2,2-Trifluoroethyl)-N-[4-[2,2,2-trifluoro-1-hydroxy-1-(trifluoromethyl)ethyl] phenyl]benzenesulfonamide) using the LanthaScreen™ TR-FRET Liver X Receptor Coactivator Assays according to manufacturer's instructions (Invitrogen catalog number pv4658.pps and pv4655). While running the LanthaScreen™ TR-FRET Liver X Receptor Coactivator Assay, LXR alpha-LBD or LXR beta-LBD was added to ligand test compounds followed by addition of a mixture of a fluorescein-labelled coactivator peptide and terbium-conjugated anti-GST antibody. After an incubation period at room temperature, TR-FRET (time-resolved fluorescence resonance energy transfer) was measured using a filter-based instrument capable of TR-FRET, e.g. PerkinElmer Envision.

Assay [2] concerns the target T2, GST tagged LXRbeta LBD (ligand binding domain) (Homo sapiens, UniProt P55055).
T2 construct: purchased Invitrogen pv4658.pps
T2 sequence (P55055 222-460 limits assumed): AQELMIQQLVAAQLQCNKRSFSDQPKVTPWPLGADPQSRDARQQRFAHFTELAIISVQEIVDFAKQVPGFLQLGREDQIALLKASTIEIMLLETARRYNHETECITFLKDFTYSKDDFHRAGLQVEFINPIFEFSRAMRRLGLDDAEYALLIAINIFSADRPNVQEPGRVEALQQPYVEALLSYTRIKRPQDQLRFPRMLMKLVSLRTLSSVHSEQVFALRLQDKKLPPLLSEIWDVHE
As to the kind of experiment: LanthaScreen TR-FRET Liver X Receptor Coactivator Assay, LXR beta-LBD. The class given is biochemical. Conditions: relative to reference T0901317; for EC50: Inflection Point (potency), co-activator recruitment, read-out: LXR beta IP; for Emax: read-out: LXR beta act @ max dose (%). As to the method:
as §1
For orientation: TR-FRET usually uses a lanthanide donor and a delayed reading to cut background.

The mark [3] stands for this setting: activity at max dose (efficacy).

Take `CN(C)C(=O)c1ccc(N2CCC(C3CCN(C(=O)C(O)(C(F)(F)F)C(F)(F)F)CC3)CC2)cc1Cl` [Example A-35, 2-chloro-N,N-dimethyl-4-{1′-[3,3,3-trifluoro-2-hydroxy-2-(trifluoromethyl)propanoyl]-4,4′-bipiperidin-1-yl}benzamide]: the EC50 in assay [1] was 217 nM; in assay [2] it was 7 nM. The figures for the Emax in assay [1] (setting [3]) and in assay [2] (setting [3]) were 59% and 86%, respectively.

For the molecule `CN(C)C(=O)c1ccc(N2CCC(C3CCN(C(=O)C4(c5cc(F)ccc5F)CCC4)CC3)CC2)cc1Cl` [Example A-76, 2-chloro-4-(1′-{[1-(2,5-difluorophenyl)cyclobutyl]carbonyl}-4,4′-bipiperidin-1-yl)-N,N-dimethylbenzamide], the values for the EC50 in assay [1] and in assay [2] were 2000 nM and 374 nM, respectively. The values for the Emax in assay [1] (setting [3]) and in assay [2] (setting [3]) were 31% and 87%, respectively.

With `O=C(c1ccc(N2CCC(C3CCN(C(=O)[C@](O)(c4ccccc4)C(F)(F)F)CC3)CC2)cc1Cl)N1CCCC1` [Example E-20], the “LXR alpha IP (nM)” value in assay [1] is reported as “NO IP”. Moreover, the Emax in assay [1] (setting [3]) came to 25%; in assay [2] (setting [3]), 78%. For the same molecule, the EC50 in assay [2] came to 197 nM.

In the case of `O=C(c1ccc(N2CCC(C3CCN(C(=O)[C@](O)(c4ccccc4)C(F)(F)F)CC3)CC2)cc1Cl)N1CC(c2cccnc2)C1` [Example E-43, (2R)-3-(1′-{3-chloro-4-[(3-pyridin-3-ylazetidin-1-yl)carbonyl]phenyl}-4,4′-bipiperidin-1-yl)-1,1,1-trifluoro-3-oxo-2-phenylpropan-2-ol], the EC50 stood at 3010 nM in assay [1] and 355 nM in assay [2]. Further, the Emax was determined as 24% in assay [1] (setting [3]) and 50% in assay [2] (setting [3]).

Consider `CN(C)C(=O)c1ccc(N2CCC(C3CCN(C(=O)C4(c5ccc(Cl)cc5Cl)CCC4)CC3)CC2)cc1Cl` [Example A-77, 2-chloro-4-(1′-{[1-(2,4-dichlorophenyl)cyclobutyl]carbonyl}-4,4′-bipiperidin-1-yl)-N,N-dimethylbenzamide], for which the figures for the EC50 in assay [1] and in assay [2] were 618 nM and 52 nM, respectively. The Emax amounted to 31% in assay [1] (setting [3]) and 86% in assay [2] (setting [3]).

As to `CN(C)C(=O)c1ccc(N2CCC(C3CCN(C(=O)C(C)(C)c4ccccc4)CC3)CC2)cc1Cl` [Example A-12, 2-chloro-N,N-dimethyl-4-[1′-(2-methyl-2-phenylpropanoyl)-4,4′-bipiperidin-1-yl]benzamide], the EC50 in assay [1] is 2460 nM; in assay [2], 14 nM. For the same molecule, the values for the Emax in assay [1] (setting [3]) and in assay [2] (setting [3]) were 47% and 114%, respectively.

As for `CC(C)N(C)C(=O)c1ccc(N2CCC(C3CCN(C(=O)[C@](O)(c4ccccc4)C(F)(F)F)CC3)CC2)cc1Cl` [Example E-33, 2-chloro-N-methyl-N-(1-methylethyl)-4-{1′-[(2R)-3,3,3-trifluoro-2-hydroxy-2-phenylpropanoyl]-4,4′-bipiperidin-1-yl}benzamide], the EC50 in assay [1] was found to be 893 nM; in assay [2], 71 nM. The Emax amounted to 24% in assay [1] (setting [3]) and 95% in assay [2] (setting [3]).

Take `CC(C)(C)OC(=O)NCC1CN(C(=O)c2ccc(N3CCC(C4CCN(C(=O)[C@](O)(c5ccccc5)C(F)(F)F)CC4)CC3)cc2Cl)C1` [Example E-39, tert-butyl ({1-[(2-chloro-4-{1′-[(2R)-3,3,3-trifluoro-2-hydroxy-2-phenylpropanoyl]-4,4′-bipiperidin-1-yl}phenyl)carbonyl]azetidin-3-yl}methyl)carbamate]: the EC50 in assay [1] stood at 1430 nM; in assay [2], 141 nM. Moreover, the Emax in assay [1] (setting [3]) was found to be 43%; in assay [2] (setting [3]), 99%.

`CC(C)(C)OC(=O)NC1CN(C(=O)c2ccc(N3CCC(C4CCN(C(=O)[C@](O)(c5ccccc5)C(F)(F)F)CC4)CC3)cc2Cl)C1` [Example E-56, tert-butyl {1-[(2-chloro-4-{1′-[(2R)-3,3,3-trifluoro-2-hydroxy-2-phenylpropanoyl]-4,4′-bipiperidin-1-yl}phenyl)carbonyl]azetidin-3-yl}carbamate]: the EC50 in assay [1] is 488 nM; in assay [2], 21 nM. The Emax in assay [1] (setting [3]) was found to be 45%; in assay [2] (setting [3]), 89%.

In the case of `CN(C)C(=O)c1ccc(N2CCC(C3CCN(S(=O)(=O)c4ccccc4C#N)CC3)CC2)cc1Cl` [Example A-102, 2-chloro-4-{1′-[(2-cyanophenyl)sulfonyl]-4,4′-bipiperidin-1-yl}-N,N-dimethylbenzamide], the EC50 was found to be 57100 nM in assay [1] and 45 nM in assay [2]. In addition, the values for the Emax in assay [1] (setting [3]) and in assay [2] (setting [3]) were 48% and 130%, respectively.

Turning to `CC(C)C(O)(C(=O)N1CCC(C2CCN(c3ccc(C(=O)N(C)C)c(Cl)n3)CC2)CC1)C(F)(F)F` (stereo in doubt) [Example B-5, 2-chloro-6-{1′-[(2R)-2-hydroxy-3-methyl-2-(trifluoromethyl)butanoyl]-4,4′-bipiperidin-1-yl}-N,N-dimethylpyridine-3-carboxamide], the EC50 in assay [1] was 1100 nM; in assay [2] it was 27 nM. Moreover, the results for the Emax in assay [1] (setting [3]) and in assay [2] (setting [3]) were 61% and 115%, respectively.

As to `O=C(c1ccc(N2CCC(C3CCN(C(=O)[C@](O)(c4ccccc4)C(F)(F)F)CC3)CC2)cc1Cl)N1CCCC1C1CC1` (stereo partly drawn) [Example E-57, (2R)-3-(1′-{3-chloro-4-[(2-cyclopropylpyrrolidin-1-yl)carbonyl]phenyl}-4,4′-bipiperidin-1-yl)-1,1,1-trifluoro-3-oxo-2-phenylpropan-2-ol], the EC50 in assay [1] came to 975 nM; in assay [2] it was 134 nM. The Emax in assay [1] (setting [3]) came to 16%; in assay [2] (setting [3]), 65%.

For `CC1CCC(C)N1C(=O)c1ccc(N2CCC(C3CCN(C(=O)[C@](O)(c4ccccc4)C(F)(F)F)CC3)CC2)cc1Cl` (stereo partly drawn) [Example E-27, (2R)-3-(1′-{3-chloro-4-[(2,5-dimethylpyrrolidin-1-yl)carbonyl]phenyl}-4,4′-bipiperidin-1-yl)-1,1,1-trifluoro-3-oxo-2-phenylpropan-2-ol], the “LXR alpha IP (nM)” value in assay [1] is reported as “NO IP”. Also, the values for the Emax in assay [1] (setting [3]) and in assay [2] (setting [3]) were 0% and 58%, respectively. Besides, the EC50 in assay [2] was determined as 53 nM.

Turning to `O=C(c1ccc(N2CCC(C3CCN(C(=O)[C@](O)(c4ccccc4)C(F)(F)F)CC3)CC2)cc1Cl)N1CCC[C@@H]1CO` [Example E-23, (2R)-3-[1′-(3-chloro-4-{[(2R)-2-(hydroxymethyl)pyrrolidin-1-yl]carbonyl}phenyl)-4,4′-bipiperidin-1-yl]-1,1,1-trifluoro-3-oxo-2-phenylpropan-2-ol], the EC50 is 1780 nM in assay [1] and 125 nM in assay [2]. Also, the Emax in assay [1] (setting [3]) turned out to be 25%; in assay [2] (setting [3]), 72%.

`CN(C)C(=O)c1ccc(N2CCC(C3CCN(C(=O)C(O)(C(C)(C)C)C(F)(F)F)CC3)CC2)cc1Cl` (racemic) [Example A-4, 2-Chloro-4-(1′-(2-hydroxy-3,3-dimethyl-2-(trifluoromethyl)butanoyl)-[4,4′-bipiperidin]-1-yl)-N,N-dimethylbenzamide]: the EC50 in assay [1] came to 735 nM; in assay [2] it was 29 nM. Moreover, the Emax in assay [1] (setting [3]) worked out at 65%; in assay [2] (setting [3]), 104%.

On to `CCN(C)C(=O)c1ccc(N2CCC(C3CCN(C(=O)[C@](O)(c4ccccc4)C(F)(F)F)CC3)CC2)cc1Cl` [Example E-60, 2-chloro-N-ethyl-N-methyl-4-{1′-[(2R)-3,3,3-trifluoro-2-hydroxy-2-phenylpropanoyl]-4,4′-bipiperidin-1-yl}benzamide], for which the values for the EC50 in assay [1] and in assay [2] were 1850 nM and 100 nM, respectively. Also, the Emax was determined as 34% in assay [1] (setting [3]) and 114% in assay [2] (setting [3]).

On to `CN(C)C(=O)c1ccc(N2CCC(C3CCN(C(=O)[C@@](C)(O)c4ccccc4)CC3)CC2)cc1Cl` [Example A-53, 2-chloro-4-{1′-[(2S)-2-hydroxy-2-phenylpropanoyl]-4,4′-bipiperidin-1-yl}-N,N-dimethylbenzamide], for which the EC50 was 3230 nM in assay [1] and 256 nM in assay [2]. Moreover, the Emax in assay [1] (setting [3]) came to 29%; in assay [2] (setting [3]), 108%.

Take `CN(C)C(=O)c1ccc(N2CCC(C3CCN(C(=O)C(O)(C(C)(C)C)C(F)(F)F)CC3)CC2)cc1Cl` (single isomer, unassigned) [Example A-7, 2-Chloro-4-(1′-(2-hydroxy-3,3-dimethyl-2-(trifluoromethyl)butanoyl)-[4,4′-bipiperidin]-1-yl)-N,N-dimethylbenzamide]: the EC50 was found to be 1400 nM in assay [1] and 62 nM in assay [2]. Further, in assay [1] (setting [3]), the “LXR alpha act @ max dose (%)” value was 56%. In addition, the “LXR beta act @ max dose (%)” value in assay [2] (setting [3]) is given as 93%.
